Laboratory results: ChEMBL document CHEMBL1135306, “Synthesis and evaluation of vancomycin and vancomycin aglycon analogues that bear modifications in the residue 3 asparagine” (2002)
In brackets after ≈: the same amount, converted by molar mass.

Key:
Type in all cases: functional
Enterococcus faecium [1] = assay: In vitro antibacterial activity against vancomycin resistant Enterococcus faecium
Enterococcus faecalis [2] = assay: In vitro antibacterial activity against vancomycin resistant Enterococcus faecalis (VanB, ATCC 51299)
Staphylococcus aureus = assay: In vitro antibacterial activity against methicillin sensitive Staphylococcus aureus (ATCC 25923)
Enterococcus faecalis [3] = assay: In vitro antibacterial activity against vancomycin resistant Enterococcus faecalis (VanA, BM4166)
Enterococcus faecium [4] = assay: In vitro antibacterial activity against Enterococcus faecium (ATCC 35667)

| SMILES | MIC (Enterococcus faecium [1]) | MIC (Enterococcus faecalis [2]) | MIC (Staphylococcus aureus) | MIC (Enterococcus faecalis [3]) | MIC (Enterococcus faecium [4]) |
| --- | --- | --- | --- | --- | --- |
| CN[C@H](CC(C)C)C(=O)N[C@H]1C(=O)N[C@@H](CC#N)C(=O)N[C@H]2C(=O)N[C@H]3C(=O)N[C@H](C(=O)N[C@H](C(=O)OC)c4cc(O)cc(O)c4-c4cc3ccc4O)[C@H](O)c3ccc(c(Cl)c3)Oc3cc2cc(c3O[C@@H]2O[C@H](CO)[C@@H](O)[C@H](O)[C@H]2O[C@H]2C[C@](C)(N)[C@H](O)[C@H](C)O2)Oc2ccc(cc2Cl)[C@H]1O | 320 µg/mL (≈ 221 µM) | 160 µg/mL (≈ 111 µM) | 2.5 µg/mL (≈ 1.73 µM) | 640 µg/mL (≈ 443 µM) | 10 µg/mL (≈ 6.92 µM) |
| CN[C@H](CC(C)C)C(=O)N[C@H]1C(=O)N[C@@H](CC(N)=O)C(=O)N[C@H]2C(=O)N[C@H]3C(=O)N[C@H](C(=O)N[C@H](C(=O)OC)c4cc(O)cc(O)c4-c4cc3ccc4O)[C@H](O)c3ccc(c(Cl)c3)Oc3cc2cc(c3O)Oc2ccc(cc2Cl)[C@H]1O | 320 µg/mL (≈ 276 µM) | 320 µg/mL (≈ 276 µM) | 5 µg/mL (≈ 4.32 µM) | 640 µg/mL (≈ 553 µM) | 10 µg/mL (≈ 8.64 µM) |
| CN[C@H](CC(C)C)C(=O)N[C@H]1C(=O)N[C@@H](CC#N)C(=O)N[C@H]2C(=O)N[C@H]3C(=O)N[C@H](C(=O)N[C@H](C(=O)O)c4cc(O)cc(O)c4-c4cc3ccc4O)[C@H](O)c3ccc(c(Cl)c3)Oc3cc2cc(c3O[C@@H]2O[C@H](CO)[C@@H](O)[C@H](O)[C@H]2O[C@H]2C[C@](C)(N)[C@H](O)[C@H](C)O2)Oc2ccc(cc2Cl)[C@H]1O | 320 µg/mL (≈ 224 µM) | 320 µg/mL (≈ 224 µM) | 20 µg/mL (≈ 14 µM) | 320 µg/mL (≈ 224 µM) | 80 µg/mL (≈ 55.9 µM) |
| CN[C@H](CC(C)C)C(=O)N[C@H]1C(=O)N[C@@H](CC#N)C(=O)N[C@H]2C(=O)N[C@H]3C(=O)N[C@H](C(=O)N[C@H](C(=O)OC)c4cc(O)cc(O)c4-c4cc3ccc4O)[C@H](O)c3ccc(c(Cl)c3)Oc3cc2cc(c3O)Oc2ccc(cc2Cl)[C@H]1O | 320 µg/mL (≈ 281 µM) | 320 µg/mL (≈ 281 µM) | 1.25 µg/mL (≈ 1.1 µM) | 320 µg/mL (≈ 281 µM) | 5 µg/mL (≈ 4.39 µM) |
| CN[C@H](CC(C)C)C(=O)N[C@H]1C(=O)N[C@@H](CC(N)=O)C(=O)N[C@H]2C(=O)N[C@H]3C(=O)N[C@H](C(=O)N[C@H](C(=O)OC)c4cc(O)cc(O)c4-c4cc3ccc4O)[C@H](O)c3ccc(c(Cl)c3)Oc3cc2cc(c3O[C@@H]2O[C@H](CO)[C@@H](O)[C@H](O)[C@H]2O[C@H]2C[C@](C)(N)[C@H](O)[C@H](C)O2)Oc2ccc(cc2Cl)[C@H]1O | 640 µg/mL (≈ 437 µM) | 80 µg/mL (≈ 54.7 µM) | 2.5 µg/mL (≈ 1.71 µM) | 640 µg/mL (≈ 437 µM) | 2.5 µg/mL (≈ 1.71 µM) |
| CN[C@H](CC(C)C)C(=O)N[C@H]1C(=O)N[C@@H](CC#N)C(=O)N[C@H]2C(=O)N[C@H]3C(=O)N[C@H](C(=O)N[C@H](C(=O)O)c4cc(OC)cc(OC)c4-c4cc3ccc4OC)[C@H](O)c3ccc(c(Cl)c3)Oc3cc2cc(c3OC)Oc2ccc(cc2Cl)[C@H]1O | 160 µg/mL (≈ 135 µM) | 20 µg/mL (≈ 16.9 µM) | 0.31 µg/mL (≈ 0.262 µM) | 160 µg/mL (≈ 135 µM) | 2.5 µg/mL (≈ 2.11 µM) |
| CN[C@H](CC(C)C)C(=O)N[C@H]1C(=O)N[C@@H](CC#N)C(=O)N[C@H]2C(=O)N[C@H]3C(=O)N[C@H](C(=O)N[C@H](C(=O)O)c4cc(O)cc(O)c4-c4cc3ccc4O)[C@H](O)c3ccc(c(Cl)c3)Oc3cc2cc(c3O)Oc2ccc(cc2Cl)[C@H]1O | 640 µg/mL (≈ 568 µM) | 320 µg/mL (≈ 284 µM) | 10 µg/mL (≈ 8.88 µM) | 640 µg/mL (≈ 568 µM) | 20 µg/mL (≈ 17.8 µM) |
| CN[C@H](CC(C)C)C(=O)N[C@H]1C(=O)N[C@@H](CC(N)=O)C(=O)N[C@H]2C(=O)N[C@H]3C(=O)N[C@H](C(=O)N[C@H](C(=O)O)c4cc(O)cc(O)c4-c4cc3ccc4O)[C@H](O)c3ccc(c(Cl)c3)Oc3cc2cc(c3O)Oc2ccc(cc2Cl)[C@H]1O [VANCOMYCIN AGLYCON] | 160 µg/mL (≈ 140 µM) | 80 µg/mL (≈ 69.9 µM) | 0.625 µg/mL (≈ 0.546 µM) | 640 µg/mL (≈ 559 µM) | 2.5 µg/mL (≈ 2.19 µM) |
| CN[C@H](CC(C)C)C(=O)N[C@H]1C(=O)N[C@@H](CC(N)=O)C(=O)N[C@H]2C(=O)N[C@H]3C(=O)N[C@H](C(=O)N[C@H](C(=O)O)c4cc(OC)cc(OC)c4-c4cc3ccc4OC)[C@H](O)c3ccc(c(Cl)c3)Oc3cc2cc(c3OC)Oc2ccc(cc2Cl)[C@H]1O | 40 µg/mL (≈ 33.3 µM) | 20 µg/mL (≈ 16.7 µM) | 0.625 µg/mL (≈ 0.521 µM) | 40 µg/mL (≈ 33.3 µM) | 2.5 µg/mL (≈ 2.08 µM) |
| CN[C@H](CC(C)C)C(=O)N[C@H]1C(=O)N[C@@H](CC(N)=O)C(=O)N[C@H]2C(=O)N[C@H]3C(=O)N[C@H](C(=O)N[C@H](C(=O)OC)c4cc(OC)cc(OC)c4-c4cc3ccc4OC)[C@H](O)c3ccc(c(Cl)c3)Oc3cc2cc(c3OC)Oc2ccc(cc2Cl)[C@H]1O | 40 µg/mL (≈ 32.9 µM) | 10 µg/mL (≈ 8.24 µM) | 0.625 µg/mL (≈ 0.515 µM) | 40 µg/mL (≈ 32.9 µM) | 1.25 µg/mL (≈ 1.03 µM) |
| CN[C@H](CC(C)C)C(=O)N[C@H]1C(=O)N[C@@H](CC(N)=O)C(=O)N[C@H]2C(=O)N[C@H]3C(=O)N[C@H](C(=O)N[C@H](C(=O)O)c4cc(O)cc(O)c4-c4cc3ccc4O)[C@H](O)c3ccc(c(Cl)c3)Oc3cc2cc(c3O[C@@H]2O[C@H](CO)[C@@H](O)[C@H](O)[C@H]2O[C@H]2C[C@](C)(N)[C@H](O)[C@H](C)O2)Oc2ccc(cc2Cl)[C@H]1O [VANCOMYCIN] | 500 µg/mL (≈ 345 µM) | 125 µg/mL (≈ 86.3 µM) | 1.25 µg/mL (≈ 0.863 µM) | 2000 µg/mL (≈ 1380 µM) | 2.5 µg/mL (≈ 1.73 µM) |
| CN[C@H](CC(C)C)C(=O)N[C@H]1C(=O)N[C@@H](CC#N)C(=O)N[C@H]2C(=O)N[C@H]3C(=O)N[C@H](C(=O)N[C@H](C(=O)OC)c4cc(OC)cc(OC)c4-c4cc3ccc4OC)[C@H](O)c3ccc(c(Cl)c3)Oc3cc2cc(c3OC)Oc2ccc(cc2Cl)[C@H]1O | 40 µg/mL (≈ 33.4 µM) | 2.5 µg/mL (≈ 2.09 µM) | 0.625 µg/mL (≈ 0.523 µM) | 40 µg/mL (≈ 33.4 µM) | 1.25 µg/mL (≈ 1.05 µM) |
